Measurements taken from patent US10894808B2, “Polypeptide ligands specific for plasma kallikrein” (BicycleRD Limited, priority 2013, dated 2021).
Like-named read-outs stand apart in the source and are kept apart here. One block for each compound: values may come before it. *1 amine or outer side, *2 acyl side, *3 side chain or, on linkers, in order; H or OH if unused. Where a SMILES comes first, the peptide text is derived from it. Bridges are numbered along the chain shown (N, C = ends). [ ]: non-standard residue; d: D form. TBMB = c1c(C[*:1])cc(C[*:3])cc1C[*:2]; Sar = CNCC(=O)O

Key:
human plasma kallikrein = biological target: T1, human plasma kallikrein (Homo sapiens, UniProt P03952); assay: Functional enzyme assay, inhibition of human plasma kallikrein (Z-PheArg-AMC substrate); format: biochemical; settings: Table 1, synthetic peptides; read-out: Human (Ki)
T1 construct: purchased Stratech, UK
T1 sequence (P03952 391-638 limits assumed): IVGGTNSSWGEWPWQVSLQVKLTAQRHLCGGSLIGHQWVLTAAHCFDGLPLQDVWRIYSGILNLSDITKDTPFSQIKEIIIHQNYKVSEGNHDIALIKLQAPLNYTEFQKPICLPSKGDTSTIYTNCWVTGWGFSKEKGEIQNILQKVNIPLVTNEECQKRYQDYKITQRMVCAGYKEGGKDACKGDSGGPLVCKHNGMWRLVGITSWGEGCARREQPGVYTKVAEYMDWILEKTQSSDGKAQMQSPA
T1 sequence (P03952 20-390 partner limits assumed): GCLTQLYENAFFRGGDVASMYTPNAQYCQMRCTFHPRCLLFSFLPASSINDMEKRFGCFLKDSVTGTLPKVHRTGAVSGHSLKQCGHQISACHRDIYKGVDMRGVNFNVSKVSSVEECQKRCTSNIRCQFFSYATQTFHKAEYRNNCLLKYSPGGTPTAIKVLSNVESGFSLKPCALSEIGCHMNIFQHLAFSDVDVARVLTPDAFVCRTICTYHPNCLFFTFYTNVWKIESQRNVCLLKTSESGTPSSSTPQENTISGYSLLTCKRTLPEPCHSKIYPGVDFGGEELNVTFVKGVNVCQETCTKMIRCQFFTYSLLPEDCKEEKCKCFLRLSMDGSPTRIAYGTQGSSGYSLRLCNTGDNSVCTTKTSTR
Procedure: (§1) Functional enzyme assays were conducted in 10 mM Tris HCl, 150 mM NaCl, 10 mM MgCl2, 1 mM CaCl2 and 1 mg/mL BSA (all Sigma UK) pH 7.4 at 25° C. in solid black 96 or 384 well plates. […] Release of AMC was measured using a Pherastar FS (BMG Labtech), excitation 360 nm, emission 460 nm. The rate of the linear phase of the reaction, typically 5 to 45 minutes, was calculated in MARS data analysis software (BMG labtech). The rate was then used to calculate the IC50 and Ki in Prism (GraphPad). A four parameter inhibition non-linear regression equation was used to calculate the IC50. […]
(§2) Peptides were dissolved as the TFA-salts in their powder form, and stock solutions were usually prepared in water. All solutions were centrifuged and filtered ([…] syringe filters) prior to absorption measurement at 280 nm. Extinction coefficients were calculated based on the Trp/Tyr content of the peptide, and that of TMB (the TMB core, when contained in a peptide, has an extinction coefficient of ˜300 M^−1 cm^−1).

rat plasma kallikrein = biological target: T2, rat plasma kallikrein (Rattus norvegicus, UniProt P14272); assay: Functional enzyme assay, inhibition of rat plasma kallikrein (Z-PheArg-AMC substrate); format: biochemical; settings: Table 1, synthetic peptides; read-out: Rat (Ki)
T2 construct: polyhistidine tag followed by proTEV cleavage site (pro-peptide) (N, cleaved yes); made in house; host or cells: HEK-293 (suspension-adapted), pEXPR-IBA42 vector
T2 sequence (P14272 391-638 limits assumed): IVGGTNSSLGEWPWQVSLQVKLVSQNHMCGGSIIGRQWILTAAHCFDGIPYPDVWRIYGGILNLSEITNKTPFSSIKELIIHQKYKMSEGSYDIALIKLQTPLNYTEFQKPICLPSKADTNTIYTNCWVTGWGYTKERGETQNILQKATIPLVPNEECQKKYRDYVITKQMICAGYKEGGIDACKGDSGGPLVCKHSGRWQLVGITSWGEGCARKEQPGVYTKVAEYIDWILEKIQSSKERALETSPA
Procedure: as §1, §2

rabbit kallikrein = rabbit kallikrein (Oryctolagus cuniculus, UniProt G1T127); assay: Functional enzyme assay, inhibition of rabbit kallikrein; format: biochemical
Chain of rabbit kallikrein (G1T127 20-629): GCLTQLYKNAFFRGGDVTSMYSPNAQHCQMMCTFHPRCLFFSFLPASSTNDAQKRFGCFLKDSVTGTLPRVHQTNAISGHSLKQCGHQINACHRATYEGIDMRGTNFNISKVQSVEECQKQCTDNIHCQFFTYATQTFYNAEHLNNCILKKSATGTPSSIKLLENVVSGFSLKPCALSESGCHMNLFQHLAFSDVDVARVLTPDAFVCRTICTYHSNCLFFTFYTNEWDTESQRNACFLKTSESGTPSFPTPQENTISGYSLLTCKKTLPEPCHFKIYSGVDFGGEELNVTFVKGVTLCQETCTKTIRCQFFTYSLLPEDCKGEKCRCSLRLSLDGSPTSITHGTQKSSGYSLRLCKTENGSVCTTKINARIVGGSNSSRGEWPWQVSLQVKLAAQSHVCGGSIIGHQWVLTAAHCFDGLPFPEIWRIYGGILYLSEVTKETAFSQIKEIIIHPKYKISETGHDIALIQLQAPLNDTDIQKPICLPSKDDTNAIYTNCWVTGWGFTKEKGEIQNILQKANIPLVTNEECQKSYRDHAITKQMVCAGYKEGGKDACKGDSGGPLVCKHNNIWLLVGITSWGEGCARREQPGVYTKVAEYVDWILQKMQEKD
Procedure: as §1, §2

[1] = Plasma stability profiling Method #1 (35% plasma, MALDI-TOF window of detection); format: in vitro ADME; settings: Method #1, 35% rat or human plasma, 37° C., qualitative
Procedure: A rapid plasma stability profiling assay was developed that employed mass spectrometric detection (MALDI-TOF, Voyager DE, Applied Biosystems) of the parent mass, until the time when the parent peptide mass was no longer observable. Specifically, 200 μM of peptide was incubated in the presence of 35% rat or human plasma (Sera labs, using citrate as anticoagulant) at 37° C., which was supplemented with 1×PBS (derived from a 10×PBS Stock, Sigma). At various time points (i.e. t=0, 3, 24 hrs, henceafter daily up to 10 days), 2 μL of sample was added to 18 μL of 30 mM ammonium bicarbonate in a 1:1 mixture of acetonitrile:H2O. Samples were frozen at −80° C. until the time of analysis. For mass spectrometric analysis that determines the approximate detection window of the peptide, the acetonitrile:H2O-diluted sample of a given time point was spotted directly (0.7 μL) onto the MALDI plate. Matrix (alpha-cyanocinnamic acid, Sigma, prepared as a saturated solution in 1:1 acetonitrile:water containing 0.1% trifluoroacetic acid) was layered over the sample (1 μL). At a similar laser intensity setting on the MALDI TOF, the time could then be determined until parent peptide was no longer detectable. It should be noted that this is a qualitative assay serves to detect relative changes in plasma stability.

[2] = Aqueous solubility (qualitative); format: physicochemical; settings: in words
[3] = biological target: T3, biotinylated human plasma kallikrein (Homo sapiens, UniProt P03952); assay: Homogeneous plate-based screening assay of TBMB-cyclised phage clones (signal:background); format: binding; settings: Table 4, 06-259 affinity-matured library
T3 construct: The human kallikrein is non-recombinant and therefore the heavy chain is present; purchased Innovative Research, Novi, Mich., USA IHPKA; host or cells: from human plasma
T3 sequence (P03952 391-638 limits assumed): as the sequence (P03952 391-638 limits assumed) above
T3 sequence (P03952 20-390 partner limits assumed): as the sequence (P03952 20-390 partner limits assumed) above
Procedure: Assay of binding of individual clones: Library transformant colonies were picked at random and grown as individual cultures in 2TY broth containing selective antibiotic. The picked colonies were DNA-sequenced using a QIAgen PyroMark Q96 DNA sequencer to reveal the amino-acid substitution present in each clone. Where isolated, a clone of each unique substitution was assayed for human plasma kallikrein binding as follows. The phage-containing supernatant was harvested from the culture and phage were cyclised with tris bromomethyl benzene (TBMB) based on the methods of Heinis et al (Nature Chemical Biology vol. 5 pp 502-507 (2009)). The purified phage from this process were assayed for binding to biotinylated human plasma kallikrein using a homogeneous plate-based binding assay; assay read-out measured on a BMG Labtech Pherastar FS plate reader. The quantitative binding data from triplicate assay samples was averaged (mean) and expressed as signal:background (where background was a sample assayed with no target material). The signal:background was expressed as a % of the parallel parent sample. Error bars denote standard deviation of the mean. Assays shown are representative of at least 2 independent experiments. The assay data was correlated with the peptide sequences. Substitutions marked in grey were not tested (a clone was not isolated from the random library sampling). A sample of a non-binding (arbitrary) bicycle was assayed in parallel to illustrate the assay baseline.
Assay of binding of individual clones: Library transformant colonies, or selection output colonies, were picked and grown as individual cultures in 2TY broth containing selective antibiotic. The picked colonies were DNA-sequenced using a QIAgen PyroMark Q96 DNA sequencer to reveal the amino-acid substitution present in each clone, and were assayed for human plasma kallikrein binding as follows. The phage-containing supernatant was harvested from the culture and phage were cyclised with tris-bromomethylbenzene (TBMB) based on the methods of Heinis et al (Nature Chemical Biology vol. 5 pp 502-507 (2009)). The purified phage from this process were assayed for binding to biotinylated human plasma kallikrein using a homogeneous plate-based binding assay; assay read-out measured on a BMG Labtech Pherastar FS plate reader. The quantitative binding data from duplicate assay samples was averaged (mean) and expressed as signal:background. Assay data shown is representative of at least 2 independent experiments. The assay data was correlated with the peptide sequences.

[4] = Plasma stability profiling Method #2 (95% plasma, MALDI-TOF), rat plasma; format: in vitro ADME; settings: qualitative, sampled up to 46 hrs
Procedure: (§3) To obtain stability data more rapidly, peptides were also assessed in 95% plasma. Here, PBS was omitted, and a 1-5 mM peptide stock (in DMSO) was directly diluted into plasma (i.e. 2.5 μL stock into 47.5 μL plasma), giving a final concentration of 50 μM. 5 μL samples were taken at appropriate time points and frozen at −80° C. For analysis, the samples were defrosted, mixed with 25 μL of 3:3:1 acetonitrile:methanol:water, and centrifuged at 13 k for 5 min. 5 μL of the peptide-containing supernatant was aspirated and mixed with 30 mM ammonium bicarbonate in a 1:1 mixture of acetonitrile:H2O. 1 μL of this was then spotted on the MALDI plate and analysed as described above. As above, it should be noted that this is a qualitative assay serves to detect relative changes in plasma stability.

[5] = Plasma stability profiling Method #2 (95% plasma, MALDI-TOF), human plasma; format: in vitro ADME; settings: qualitative, sampled up to 46 hrs
Procedure: as §3

[6] = Intravenous pharmacokinetics in rat; format: in vivo
Procedure: Peptides used for the pharmacokinetic studies in Example 4 were lyophilised from 10 mM HCl in water 3 times to afford the hydrochloride salts of the compounds. Solutions were dosed by intravenous bolus at 1 mg/mL in 50 mM Hepes pH 7.0, 5% glycerol, 1.9% DMSO for two compounds (Ac-(06-550) Aze3 HArg5 Sar3-(D-Arg2)) and (06-259-02)-Sar3-(D-Arg2)) at 5 mg/kg in Spraguely Dawely rats. Serial blood samples (˜0.2 mL) were taken into EDTA tubes at the indicated time points, and plasma was separated by centrifugation, and frozen at −20 C for analysis. Employing standard bioanalytical techniques, plasma samples were then analysed and quantified for parent remaining compound using a Waters, Xevo TQS LC-MS. PK parameters were determined using the software package PK Solutions 2.0 from Summit Research Services.
Peptides Ac-(06-550)-Sar3-(D-Arg)2Aze3 HArg5 (which contains the stabilising and affinity enhancing modifications Aze3 and HArg5, and a solubilising C-terminal extension Sar3-(D-Arg)2) (SEQ ID NO: 98) and Ac-(06-259-02)-Sar3-(D-Arg)2 were selected for pharmacokinetic assessment in rat. Peptides were injected intravenously in buffered solution at 1 mg/mL at 5 mg/kg Sprague Dawley rats, and blood was sampled and analysed for peptide concentrations at a number of time points post injection.

[7] = tested on: carrageenan-induced paw oedema; assay: Carrageenan-induced paw oedema in rat; format: in vivo; settings: peptides 15 mg/kg ip, indomethacin 5 mg/kg ip, paw volume at 1, 2, 4, 6 h, p<0.001
Procedure: In this analysis, peptide Ac-(06-259-02)-Sar3-(D-Arg)2 (referred to in this study as Bicycle 3; see Example 2 herein) was assessed comparatively against the peptide Ac-(06-34-18) Phe2 Aze3 Tyr4 HArg5 Ala(ψCH2NH)6 (referred to in this study as Bicycle 2 and which is disclosed in Table 26b and FIG. 22 of PCT/EP2014/057440). Inflammation was induced in male Sprague-Dawley rats (n=10 per group) by injection of 100 μL of 1% carrageenan solution in the subplantar region of the right hind paw. Animals received treatment with the peptides and indomethacin according to Table 10:
At 1, 2, 4 and 6 hours after carrageenan administration, paw volume was measured by water displacement method. Statistical analysis was conducted using 2-way ANOVA with repeated measures (GraphPad Prism).

Structure (SMILES): CC(C)C[C@@H]1NC(=O)[C@@H]2CCCN2C(=O)[C@H](C)NC(=O)[C@H](CC(=O)O)NC(=O)[C@H](Cc2c[nH]c3ccccc23)NC(=O)[C@@H]2CCCN2C(=O)[C@@H]2CSCc3cc(cc(c3)CSC[C@@H](C(=O)N[C@@H](C)C(N)=O)NC1=O)CSC[C@H](NC(=O)[C@H](C)N)C(=O)N[C@@H](CC(N)=O)C(=O)N[C@@H]([C@@H](C)O)C(=O)N[C@@H](Cc1c[nH]c3ccccc13)C(=O)N[C@@H](CC(N)=O)C(=O)N1CCC[C@H]1C(=O)N[C@@H](Cc1c[nH]c3ccccc13)C(=O)N2 [06-259-02] (H-ACNTWNPWCPWDAPLCA-NH2; linker 2-9-16 via TBMB; N-terminus and C-terminus assumed)
Ki (rabbit kallikrein; Table 5, read-out: Rabbit (Ki)): 1450 nM
S:B (Signal:Background) [3]: 43.49
window of detection of parent peptide [1]: up to 10 days
comparative stability in rat plasma [4]: significantly more stable
comparative stability in human plasma [5]: significantly more stable
clearance ([6]; Sprague-Dawley, plasma, text b258, rat, iv 5 mg/kg): 7 mL/min/kg
aqueous solubility [2]: poor solubility profile

Structure (SMILES): CC(=O)N[C@H]1CSCc2cc3cc(c2)CSC[C@H](NC(=O)[C@H](Cc2c[nH]c4ccccc24)NC(=O)[C@@H]2CCCN2C(=O)[C@H](CC(N)=O)NC(=O)[C@H](Cc2c[nH]c4ccccc24)NC(=O)[C@H]([C@@H](C)O)NC(=O)[C@H](CC(N)=O)NC1=O)C(=O)N1CCC[C@H]1C(=O)N[C@@H](Cc1c[nH]c2ccccc12)C(=O)N[C@@H](CC(=O)O)C(=O)N[C@@H](C)C(=O)N1CCC[C@H]1C(=O)N[C@@H](CC(C)C)C(=O)N[C@H](C(=O)N[C@@H](C)C(=O)N(C)CC(=O)N(C)CC(=O)N(C)CC(=O)N[C@H](CCCNC(=N)N)C(=O)N[C@H](CCCNC(=N)N)C(N)=O)CSC3 [Ac-(06-259-02)-Sar3-(DArg2)] (Ac-CNTWNPWCPWDAPLCA[Sar][Sar][Sar][dR][dR]-NH2; linker 1-8-15 via TBMB)
Ki (rabbit kallikrein): 1450 nM
stability in the rat circulation ([6]; FIG. 4, rat, iv, in words): marked stability in the rat circulation
clearance ([6]; in vivo, Table 8, Sprague Dawley rat, iv 5 mg/kg): 7.2 mL/min/kg
Vd ([6]; in vivo, Table 8, Sprague Dawley rat, iv 5 mg/kg, read-out: Vss): 0.8 L/kg
half-life ([6]; in vivo, Table 8, Sprague Dawley rat, iv 5 mg/kg, read-out: t1/2 elimination): 1.3 h
effect on paw swelling induced by carrageenan [7]: inhibited the paw swelling induced by carrageenan at all timepoints

Structure (SMILES): COc1ccc2c(c1)c(CC(=O)O)c(C)n2C(=O)c1ccc(Cl)cc1 [indomethacin, reference compound]
effect on paw swelling induced by carrageenan [7]: highly significant reduction in paw swelling

The next lines start with the values.

Ki (human plasma kallikrein): 3.4 nM
Ki (rat plasma kallikrein): 18.9 nM
Ki (rabbit kallikrein; Table 1, synthetic peptides, read-out: Rabbit (Ki)): 342 nM
Ki (rabbit kallikrein; Table 5, read-out: Rabbit (Ki)): 342 nM
window of detection of parent peptide [1]: up to 10 days
aqueous solubility [2]: poor solubility profile
Structure (SMILES): CC[C@H](C)[C@@H]1NC(=O)[C@H](CC(C)C)NC(=O)[C@H]([C@@H](C)O)NC(=O)[C@@H]2CSCc3cc(cc(c3)CSC[C@@H](C(=O)N[C@@H](C)C(N)=O)NC(=O)[C@H]([C@@H](C)O)NC(=O)[C@H]([C@@H](C)CC)NC(=O)[C@H](CC(N)=O)NC1=O)CSC[C@H](NC(=O)[C@H](C)N)C(=O)N[C@@H](CCCNC(=N)N)C(=O)N[C@@H](CC(N)=O)C(=O)N[C@@H](Cc1ccc(O)cc1)C(=O)N[C@@H](Cc1c[nH]c3ccccc13)C(=O)N[C@@H](CC(N)=O)C(=O)N1CCC[C@H]1C(=O)N2 [06-255] (H-ACRNYWNPCTLINITCA-NH2; linker 2-9-16 via TBMB; N-terminus and C-terminus assumed)

clearance ([6]; in vivo, text b258, rat, iv 5 mg/kg): 17 mL/min/kg
aqueous solubility [2]: significantly reduced aqueous solubility
Structure (SMILES): CC[C@H](C)[C@@H]1NC(=O)[C@H](CC(=O)O)NC(=O)[C@@H]2CCCN2C(=O)[C@H](Cc2ccc(O)cc2)NC(=O)[C@H](Cc2ccc(O)cc2)NC(=O)[C@H](C(C)C)NC(=O)[C@@H]2CSCc3cc(cc(c3)CSC[C@H](N)C(=O)N[C@@H](CO)C(=O)N[C@@H](Cc3ccccc3)C(=O)N3CCC[C@H]3C(=O)N[C@@H](Cc3ccc(O)cc3)C(=O)N[C@@H](CCCNC(=N)N)C(=O)N2)CSC[C@@H](C(N)=O)NC1=O [06-550] (H-CSFPYRCVYYPDIC-NH2; linker 1-7-14 via TBMB; N-terminus assumed)
